From ChEMBL document CHEMBL4311933, “Biochemical and microbiological evaluation of N-aryl urea derivatives against mycobacteria and mycobacterial hydrolases” (Medchemcomm, 2019)
Values after ≈ are worked out from the molar mass of the structure shown. Active and inactive are the calls of the source. The calls are words filed in the database; no cut-off is given here.

Experiments:
[1] = target: T1, Carboxylesterase/lipase Culp6 (Mycobacterium tuberculosis (strain ATCC 25618 / H37Rv), UniProt O53581); assay: (§1) Inhibition of recombinant Mycobacterium tuberculosis H37Rv ATCC 25618 Rv3802c expressed in Escherichia coli T7 assessed as residual activity by measuring hydrolysis of resorufin butyrate at 200 uM using resorufin butyrate as substrate preincubated for 15 mins followed by substrate addition by relative to control; details: read-out: Activity
T1 sequence (O53581 whole entry): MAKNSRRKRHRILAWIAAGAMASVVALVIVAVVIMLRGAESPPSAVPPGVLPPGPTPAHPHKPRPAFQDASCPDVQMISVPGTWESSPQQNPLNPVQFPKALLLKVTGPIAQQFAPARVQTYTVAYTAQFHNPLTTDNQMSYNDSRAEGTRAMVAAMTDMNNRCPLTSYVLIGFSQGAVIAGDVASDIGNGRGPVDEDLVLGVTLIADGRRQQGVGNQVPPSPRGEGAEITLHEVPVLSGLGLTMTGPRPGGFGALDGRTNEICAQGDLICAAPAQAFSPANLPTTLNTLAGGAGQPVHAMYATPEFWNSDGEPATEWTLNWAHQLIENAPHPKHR

[2] = system: Mycobacterium tuberculosis H37Rv; assay: Inhibition of recombinant Mycobacterium tuberculosis H37Rv ATCC 25618 mycolyltransferase expressed in Escherichia coli T7 at 500 uM using resorufin butyrate as substrate preincubated for 15 mins followed by substrate addition by fluorimetric assay
[3] = target: T1, Carboxylesterase/lipase Culp6; assay: as §1, with “500” for “200”, “addition” for “addition by”; details: for activity at 500 µM: read-out: Activity
[4] = target: T1, Carboxylesterase/lipase Culp6; assay: Inhibition of recombinant Mycobacterium tuberculosis H37Rv ATCC 25618 Rv3802c cutinase expressed in Escherichia coli T7 assessed as inhibition constant using resorufin butyrate as substrate preincubated for 15 mins followed by substrate addition
[5] = target: T1, Carboxylesterase/lipase Culp6; assay: Inhibition of recombinant Mycobacterium tuberculosis H37Rv ATCC 25618 Rv3802c cutinase expressed in Escherichia coli T7 at 500 uM using resorufin butyrate as substrate preincubated for 15 mins followed by substrate addition relative to control
L929 = assay: Cytotoxicity against murine L929 assessed as reduction in cell viability after 24 hrs by MTT assay; type: cell-based; details: Mus musculus, L929, 24 h
[6] = system: Mycobacterium tuberculosis; assay: Antimycobacterial activity against Mycobacterium tuberculosis H37Rv mc2 6206 after 7 days by resazurin microtiter assay; type: functional; details: H37Rv mc2 6206, 168 h
[7] = Selectivity index, ratio of IC50 for murine L929 cells to MIC for Mycobacterium tuberculosis H37Rv mc2 6206; type: toxicity; details: mouse, read-out: Selectivity Index
[8] = system: Mycobacterium tuberculosis; assay: Antimycobacterial activity against Mycobacterium tuberculosis H37Ra ATCC 25177 after 7 days by resazurin microtiter assay; type: functional; details: H37Ra ATCC 25177, 168 h
[9] = system: Mycobacteroides abscessus; assay: Antimycobacterial activity against Mycobacterium abscessus ATCC 19977 after 7 days by resazurin microtiter assay; type: functional; details: ATCC 19977, 168 h
[10] = Selectivity index, ratio of IC50 for murine L929 cells to MIC for Mycobacterium tuberculosis H37Ra ATCC 25177; type: toxicity; details: mouse, read-out: Selectivity Index
[11] = system: Mycolicibacterium smegmatis; assay: Antimycobacterial activity against Mycobacterium smegmatis mc2 155 after 7 days by resazurin microtiter assay; type: functional; details: MC2 155, 168 h
[12] = system: Mycobacterium tuberculosis H37Rv; assay: as §1, with “ATCC 25618 mycolyltransferase expressed in” for “ATCC 25618 Rv3802c expressed in”, “addition by fluorimetric assay relative to” for “addition by relative to”

Row | SMILES | activity at 200 µM [1] [%] | inhibition [2] | activity at 500 µM [3] [%] | also measured
1 | O=C(NCC1CCCCC1)n1nnc2ccccc21 | 43 |  |  | 
2 | O=C(NCc1cccs1)Nc1ccccc1 |  | inactive | 50.5 | 
3 | O=C(NCc1ccco1)Nc1ccccc1 |  | inactive | 38.2 | 
4 | O=C(Nc1cc(F)cc(F)c1)N(Cc1ccco1)Cc1ccco1 | 100 |  |  | 
5 | O=C(NCc1nc2ccccc2[nH]1)Nc1cc(F)cc(F)c1 | 20 |  |  | 
6 | O=C(NCc1ccco1)Nc1cc(F)cc(F)c1 |  |  | 13 | Ki [4]: 5.2 µM; inhibition at 500 µM [5]: 88%
7 | O=C(NCC1CCCCC1)Nc1ccc(Br)cc1 |  |  | 100 | 
8 | O=C(NCC1CCCCC1)Nc1cc(F)cc(F)c1 |  |  | 72.5 | IC50 (L929): 70 µM; MIC [6]: 3.12 µM (≈ 0.837 µg/mL); selectivity ratio [7]: > 20; MIC [8]: 25 µM (≈ 6.71 µg/mL); MIC [9]: 25 µM (≈ 6.71 µg/mL); selectivity ratio [10]: > 20; MIC [11]: 62.5 µM (≈ 16.8 µg/mL)
9 | O=C(NCC1CCCCC1)Nc1ccccc1 |  | inactive | 53 | 
10 | O=C(Nc1ccccc1)N1CCCCC1 |  | inactive | 43 | 
11 | O=C(Nc1ccccc1)NC1CCCC1 |  | inactive | 56.2 | 
12 | O=C(NCc1ncc[nH]1)Nc1cc(F)cc(F)c1 | 100 |  |  | 
13 | O=C(NCC1CCCCC1)Nc1ccc(F)cc1 |  |  | 66 | 
14 | O=C(NCC1CCCCC1)Nc1ccc([N+](=O)[O-])cc1 |  |  |  | IC50 (L929): 57 µM; Activity ([3]; 500 µM): Active; MIC [6]: 3.12 µM (≈ 0.865 µg/mL); selectivity ratio [7]: > 20; MIC [8]: 25 µM (≈ 6.93 µg/mL); MIC [9]: > 100 µM; selectivity ratio [10]: > 20; MIC [11]: 15.6 µM (≈ 4.33 µg/mL)
15 | O=C(NCc1ccco1)Nc1ccc(C(F)(F)F)cc1 |  |  | 82 | 
16 | O=C(NCc1ccco1)n1ccnn1 | 72.5 |  |  | Activity [12]: 14%
17 | O=C(NCCc1ccccc1)Nc1ccccc1 |  | inactive | 73.1 | 
18 | O=C(NCC1CCCCC1)Nc1ccc(C(F)(F)F)cc1 |  |  | 83.6 | IC50 (L929): 56 µM; MIC [6]: 1.5 µM (≈ 0.45 µg/mL); selectivity ratio [7]: > 20; MIC [8]: 12.5 µM (≈ 3.75 µg/mL); MIC [9]: > 100 µM; selectivity ratio [10]: > 20; MIC [11]: > 100 µM
19 | O=C(Nc1cc(F)cc(F)c1)N(Cc1ccc(F)cc1)Cc1ccco1 | 100 |  |  | 
20 | O=C(Nc1ccccc1)NC1CCCCC1 |  | inactive | 84.3 | 
21 | O=C(NCc1ccco1)Nc1ccc(F)cc1 |  |  | 54.9 | 
22 | CSc1nncn1C(=O)NCC1CCCCC1 | 40 |  |  | 
23 | O=C(NCc1ccco1)n1nnc2ccccc21 | 44 |  |  | Activity [12]: 80%
